Test results taken from PMC4774911, “Biochemical Screening of Five Protein Kinases from Plasmodium falciparum against 14,000 Cell-Active Compounds” (PLoS ONE, 2016).
Values joined by “and” are separate entries in the source; they are usually repeats but may differ in a detail not shown here. Equal values may be shown once.

Experiments:
Experiment in all cases: biochemical
[1] = molecular target: MELK (Homo sapiens, UniProt Q14680)
[2] = molecular target: T1, MAP3K2 (Homo sapiens, UniProt Q9Y2U5)
T1 sequence (Q9Y2U5 1-619): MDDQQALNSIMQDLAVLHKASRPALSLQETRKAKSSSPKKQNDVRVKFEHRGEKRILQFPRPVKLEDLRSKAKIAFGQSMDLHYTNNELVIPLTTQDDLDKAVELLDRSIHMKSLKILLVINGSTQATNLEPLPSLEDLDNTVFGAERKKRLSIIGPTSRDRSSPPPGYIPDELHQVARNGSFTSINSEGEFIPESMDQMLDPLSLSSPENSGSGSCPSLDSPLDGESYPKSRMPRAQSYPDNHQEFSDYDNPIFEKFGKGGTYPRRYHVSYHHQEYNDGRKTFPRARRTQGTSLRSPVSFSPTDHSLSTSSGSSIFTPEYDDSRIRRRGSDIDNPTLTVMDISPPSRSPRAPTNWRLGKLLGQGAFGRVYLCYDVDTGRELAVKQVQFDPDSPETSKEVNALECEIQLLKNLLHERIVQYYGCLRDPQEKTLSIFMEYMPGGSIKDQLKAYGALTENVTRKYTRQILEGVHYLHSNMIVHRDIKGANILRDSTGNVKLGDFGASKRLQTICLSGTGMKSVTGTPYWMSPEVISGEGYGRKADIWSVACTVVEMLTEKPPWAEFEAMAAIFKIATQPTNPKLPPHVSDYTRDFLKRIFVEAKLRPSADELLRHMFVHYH

[3] = molecular target: SLK (Homo sapiens, UniProt Q9H2G2)
Chain of SLK (Q9H2G2 whole entry): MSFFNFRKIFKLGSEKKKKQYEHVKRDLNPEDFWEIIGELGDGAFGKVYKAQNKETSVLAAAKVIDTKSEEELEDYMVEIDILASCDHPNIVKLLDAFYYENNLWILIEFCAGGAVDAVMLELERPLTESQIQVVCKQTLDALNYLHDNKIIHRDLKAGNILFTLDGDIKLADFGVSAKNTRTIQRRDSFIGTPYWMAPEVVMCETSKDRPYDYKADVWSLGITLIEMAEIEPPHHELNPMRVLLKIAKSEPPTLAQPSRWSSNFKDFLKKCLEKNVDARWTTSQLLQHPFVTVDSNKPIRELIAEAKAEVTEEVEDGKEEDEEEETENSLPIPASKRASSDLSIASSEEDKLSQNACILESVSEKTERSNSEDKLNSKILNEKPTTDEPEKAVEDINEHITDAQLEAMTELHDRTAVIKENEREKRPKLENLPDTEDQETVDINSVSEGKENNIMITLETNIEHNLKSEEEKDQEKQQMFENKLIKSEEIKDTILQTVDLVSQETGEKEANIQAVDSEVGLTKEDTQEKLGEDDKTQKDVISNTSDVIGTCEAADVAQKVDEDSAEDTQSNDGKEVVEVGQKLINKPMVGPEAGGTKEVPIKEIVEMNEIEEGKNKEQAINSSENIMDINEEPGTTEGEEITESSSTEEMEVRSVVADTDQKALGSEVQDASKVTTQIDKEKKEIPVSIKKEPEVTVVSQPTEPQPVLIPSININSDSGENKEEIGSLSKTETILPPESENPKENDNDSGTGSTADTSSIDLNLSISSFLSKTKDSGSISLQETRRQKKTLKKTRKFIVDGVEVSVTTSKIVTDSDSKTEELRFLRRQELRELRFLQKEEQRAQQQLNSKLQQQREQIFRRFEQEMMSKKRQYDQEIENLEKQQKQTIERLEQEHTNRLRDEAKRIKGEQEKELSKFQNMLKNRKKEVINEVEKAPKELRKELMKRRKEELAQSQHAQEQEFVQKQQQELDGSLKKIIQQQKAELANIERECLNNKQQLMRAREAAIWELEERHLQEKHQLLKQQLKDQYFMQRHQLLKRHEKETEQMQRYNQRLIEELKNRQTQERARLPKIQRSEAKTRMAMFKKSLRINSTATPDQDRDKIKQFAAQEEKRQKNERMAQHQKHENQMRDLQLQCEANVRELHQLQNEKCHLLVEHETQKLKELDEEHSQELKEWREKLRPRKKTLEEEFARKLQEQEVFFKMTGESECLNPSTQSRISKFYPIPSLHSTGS

[4] = molecular target: T2, LATS1 (Homo sapiens, UniProt O95835)
T2 sequence (O95835 1-1130): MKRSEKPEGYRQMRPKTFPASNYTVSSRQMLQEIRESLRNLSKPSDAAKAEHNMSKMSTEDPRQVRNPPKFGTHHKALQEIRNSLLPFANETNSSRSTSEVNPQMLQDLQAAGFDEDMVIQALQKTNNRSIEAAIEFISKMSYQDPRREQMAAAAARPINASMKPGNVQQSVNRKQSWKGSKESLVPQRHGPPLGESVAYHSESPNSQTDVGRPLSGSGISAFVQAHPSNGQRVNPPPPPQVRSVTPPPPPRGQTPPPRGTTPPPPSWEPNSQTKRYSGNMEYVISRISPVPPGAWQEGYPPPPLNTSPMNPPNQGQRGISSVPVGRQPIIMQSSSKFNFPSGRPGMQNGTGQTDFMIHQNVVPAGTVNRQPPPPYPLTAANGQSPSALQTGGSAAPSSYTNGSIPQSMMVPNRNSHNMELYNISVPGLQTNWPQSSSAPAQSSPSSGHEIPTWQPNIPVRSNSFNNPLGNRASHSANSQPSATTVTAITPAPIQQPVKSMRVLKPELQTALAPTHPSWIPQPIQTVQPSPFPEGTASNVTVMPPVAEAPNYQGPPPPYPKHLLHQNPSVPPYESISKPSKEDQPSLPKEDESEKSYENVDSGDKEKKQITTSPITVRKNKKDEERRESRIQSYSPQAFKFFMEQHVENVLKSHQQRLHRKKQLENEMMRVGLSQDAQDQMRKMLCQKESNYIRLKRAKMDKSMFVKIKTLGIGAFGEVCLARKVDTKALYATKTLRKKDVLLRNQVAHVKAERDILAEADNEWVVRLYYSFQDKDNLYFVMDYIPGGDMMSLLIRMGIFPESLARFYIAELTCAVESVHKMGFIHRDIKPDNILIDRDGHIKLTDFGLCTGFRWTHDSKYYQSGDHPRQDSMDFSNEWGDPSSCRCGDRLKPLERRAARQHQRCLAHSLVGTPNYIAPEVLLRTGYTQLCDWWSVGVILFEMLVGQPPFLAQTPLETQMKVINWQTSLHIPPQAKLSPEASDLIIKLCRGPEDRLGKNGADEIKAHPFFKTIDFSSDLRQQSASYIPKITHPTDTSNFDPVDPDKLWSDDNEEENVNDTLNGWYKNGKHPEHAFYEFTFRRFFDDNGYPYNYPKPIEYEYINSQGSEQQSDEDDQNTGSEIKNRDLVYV

[5] = molecular target: T3, EPHB4 (Homo sapiens, UniProt P54760)
T3 sequence (P54760 1-987): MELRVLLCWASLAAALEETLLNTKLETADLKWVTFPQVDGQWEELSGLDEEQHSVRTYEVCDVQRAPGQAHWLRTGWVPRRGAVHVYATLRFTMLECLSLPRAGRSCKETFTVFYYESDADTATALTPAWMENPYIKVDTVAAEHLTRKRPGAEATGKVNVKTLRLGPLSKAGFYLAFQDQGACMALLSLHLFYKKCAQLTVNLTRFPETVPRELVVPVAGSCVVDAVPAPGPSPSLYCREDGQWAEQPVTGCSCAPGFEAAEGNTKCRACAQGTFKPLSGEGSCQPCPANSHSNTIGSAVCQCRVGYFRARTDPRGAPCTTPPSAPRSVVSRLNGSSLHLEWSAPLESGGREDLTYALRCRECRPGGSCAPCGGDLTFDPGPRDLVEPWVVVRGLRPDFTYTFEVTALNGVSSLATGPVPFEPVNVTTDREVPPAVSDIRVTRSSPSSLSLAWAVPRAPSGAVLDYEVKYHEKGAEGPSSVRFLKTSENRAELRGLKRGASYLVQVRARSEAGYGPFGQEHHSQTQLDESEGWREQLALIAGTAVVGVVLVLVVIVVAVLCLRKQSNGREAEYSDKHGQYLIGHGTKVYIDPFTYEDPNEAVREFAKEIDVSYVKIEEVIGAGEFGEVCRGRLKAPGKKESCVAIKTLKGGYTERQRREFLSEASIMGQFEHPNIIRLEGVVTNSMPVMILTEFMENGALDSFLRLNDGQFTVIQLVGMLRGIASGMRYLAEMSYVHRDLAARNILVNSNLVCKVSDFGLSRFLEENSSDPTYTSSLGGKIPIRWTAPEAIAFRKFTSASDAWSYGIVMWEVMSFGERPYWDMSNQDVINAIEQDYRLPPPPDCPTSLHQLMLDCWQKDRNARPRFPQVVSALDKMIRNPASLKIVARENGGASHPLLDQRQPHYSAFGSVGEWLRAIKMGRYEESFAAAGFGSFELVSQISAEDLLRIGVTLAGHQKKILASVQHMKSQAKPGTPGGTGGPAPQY

[6] = molecular target: MAPK1 (Homo sapiens, UniProt P28482)
Chain of MAPK1 (P28482 whole entry): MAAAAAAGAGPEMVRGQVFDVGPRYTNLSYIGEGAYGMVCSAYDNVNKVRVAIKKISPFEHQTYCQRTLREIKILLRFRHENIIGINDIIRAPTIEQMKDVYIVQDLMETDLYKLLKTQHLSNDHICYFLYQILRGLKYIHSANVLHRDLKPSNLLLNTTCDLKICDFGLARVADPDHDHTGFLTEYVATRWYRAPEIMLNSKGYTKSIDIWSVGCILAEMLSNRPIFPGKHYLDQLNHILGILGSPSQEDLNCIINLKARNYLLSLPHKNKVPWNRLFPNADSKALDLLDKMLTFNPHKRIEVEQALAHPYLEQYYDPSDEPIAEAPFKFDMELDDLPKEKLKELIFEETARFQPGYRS

[7] = molecular target: PIK3R4 (Homo sapiens, UniProt Q99570)
Chain of PIK3R4 (Q99570 whole entry): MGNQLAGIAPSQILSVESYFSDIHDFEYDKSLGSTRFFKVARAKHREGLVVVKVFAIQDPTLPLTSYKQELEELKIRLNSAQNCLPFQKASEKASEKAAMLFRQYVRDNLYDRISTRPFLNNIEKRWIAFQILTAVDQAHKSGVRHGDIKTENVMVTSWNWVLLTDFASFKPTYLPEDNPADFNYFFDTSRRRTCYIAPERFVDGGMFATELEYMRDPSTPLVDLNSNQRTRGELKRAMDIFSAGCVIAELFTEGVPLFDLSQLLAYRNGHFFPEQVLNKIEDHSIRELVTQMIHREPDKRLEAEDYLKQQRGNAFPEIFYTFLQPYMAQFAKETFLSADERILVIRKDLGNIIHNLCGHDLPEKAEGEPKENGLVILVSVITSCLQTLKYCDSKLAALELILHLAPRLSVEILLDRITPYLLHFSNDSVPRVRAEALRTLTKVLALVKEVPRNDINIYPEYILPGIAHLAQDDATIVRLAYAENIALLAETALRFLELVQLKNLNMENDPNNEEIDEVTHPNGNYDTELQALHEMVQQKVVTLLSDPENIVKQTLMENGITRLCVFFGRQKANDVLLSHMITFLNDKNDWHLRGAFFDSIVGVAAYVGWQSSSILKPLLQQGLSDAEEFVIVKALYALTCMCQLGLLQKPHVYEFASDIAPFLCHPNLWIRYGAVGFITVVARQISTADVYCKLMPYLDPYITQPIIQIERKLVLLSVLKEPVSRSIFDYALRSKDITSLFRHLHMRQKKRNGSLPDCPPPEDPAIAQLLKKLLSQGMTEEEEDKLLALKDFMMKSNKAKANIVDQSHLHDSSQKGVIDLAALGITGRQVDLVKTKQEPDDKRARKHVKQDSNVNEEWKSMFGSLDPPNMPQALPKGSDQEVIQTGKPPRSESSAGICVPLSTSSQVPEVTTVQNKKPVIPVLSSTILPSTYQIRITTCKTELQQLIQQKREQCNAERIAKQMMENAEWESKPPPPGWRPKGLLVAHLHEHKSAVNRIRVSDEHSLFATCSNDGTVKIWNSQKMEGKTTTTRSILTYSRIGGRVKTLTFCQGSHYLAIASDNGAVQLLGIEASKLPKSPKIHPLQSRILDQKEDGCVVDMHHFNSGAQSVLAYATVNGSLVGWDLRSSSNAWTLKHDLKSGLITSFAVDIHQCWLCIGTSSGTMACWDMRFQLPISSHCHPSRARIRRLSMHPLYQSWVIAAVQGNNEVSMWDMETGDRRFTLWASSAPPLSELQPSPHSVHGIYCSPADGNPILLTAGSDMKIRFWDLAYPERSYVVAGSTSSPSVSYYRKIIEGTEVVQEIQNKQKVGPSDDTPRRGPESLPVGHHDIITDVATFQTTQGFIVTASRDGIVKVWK

Chain of MELK (Q14680 whole entry): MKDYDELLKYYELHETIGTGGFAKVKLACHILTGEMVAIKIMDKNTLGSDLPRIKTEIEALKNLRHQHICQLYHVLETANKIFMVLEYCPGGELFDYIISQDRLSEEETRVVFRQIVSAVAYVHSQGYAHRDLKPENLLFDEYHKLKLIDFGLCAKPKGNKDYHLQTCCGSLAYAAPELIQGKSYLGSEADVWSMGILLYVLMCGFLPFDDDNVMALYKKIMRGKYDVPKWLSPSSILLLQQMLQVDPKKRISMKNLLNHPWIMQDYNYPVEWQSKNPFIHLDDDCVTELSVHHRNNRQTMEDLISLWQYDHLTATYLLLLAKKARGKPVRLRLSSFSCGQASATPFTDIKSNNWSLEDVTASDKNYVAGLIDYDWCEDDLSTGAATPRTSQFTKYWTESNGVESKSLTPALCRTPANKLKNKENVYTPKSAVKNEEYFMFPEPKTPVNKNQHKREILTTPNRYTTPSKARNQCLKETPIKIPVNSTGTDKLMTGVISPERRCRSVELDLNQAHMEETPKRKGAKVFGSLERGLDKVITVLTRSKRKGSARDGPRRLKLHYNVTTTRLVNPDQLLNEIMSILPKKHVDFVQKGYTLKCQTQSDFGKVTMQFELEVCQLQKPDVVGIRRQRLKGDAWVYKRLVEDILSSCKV

Row | SMILES | IC50 [1] | IC50 [2] [µM] | IC50 [3] | IC50 [4] [µM] | IC50 [5] [µM] | IC50 [6] [µM] | IC50 [7] [µM]
1 | CN1CCN(c2ccc(Nc3ncc(C#N)c(Nc4ccccc4C(N)=O)n3)cc2)CC1.Cl [TCMDC-134116] | 0.36 µM and 0.35 µM | 0.49 | 0.048 µM and 0.057 µM | 0.21 | 4.3 | > 20 | 2.2
2 | Cl.NCC1(c2nc(-c3ccc(Cl)c(O)c3)c(-c3ccncc3)[nH]2)CCCCC1 [TCMDC-141154] | 4.7 µM and 4.5 µM | 1.2 | ≤ 0.032 µM | 1.1 | 5.3 | > 20 | > 20
3 | CN(C)CC(O)COc1ccc(Nc2ncc([N+](=O)[O-])c(Nc3ccccc3O)n2)cc1.O=C(O)C(F)(F)F (stereo not drawn) [TCMDC-141399] | > 20 µM | > 20 | 0.89 µM and 1 µM | > 20 | > 20 | > 20 | > 20
